Measured values from a melting point compilation (Tetko et al.; mined from patent text by program, amines drawn as free bases though some values may be those of a salt).

Row | melting point [°C] | Compound
1 | 123 | C=CNC(=O)n1sc(OCC)nc1=O
2 | 126 | C1=C(c2cccc(CNCCOc3cccc4ccoc34)c2)CCC1
3 | 157 to 158 | CC(C)c1nc(CNC(=O)C(F)(F)F)n(C)c1Sc1cc(Cl)cc(Cl)c1
4 | 157 to 159 | CC(C)c1nn(-c2ccccc2)c(-c2ccc(F)cc2)c1CC[C@H]1C[C@H](O)CC(=O)O1 (relative stereo)
5 | 162 to 164 | N#Cc1ccc2[nH]cc(C3CCC(=O)CC3)c2c1
6 | 87 to 90 | CC1(CC(=O)O)OCCc2c1[nH]c1ccccc21 (centres undefined)
7 | 162 to 165 | CCc1cc(C(=O)OC)n(C)n1
8 | 127 to 129 | COC(=O)c1c(-c2cccc([N+](=O)[O-])c2)cc(-c2ccccc2)nc1C
9 | 125 | CCCCNCC(=O)Nc1ccc2c(c1)C(=O)c1cc(NC(=O)CNCCCC)ccc1C2=O
10 | 92 to 94 | COc1ccc(/C(=C\C=O)c2ccccc2OC)cc1
11 | 143 to 144 | Cc1cc(C)cc(COC(=O)C(Cc2c[nH]c3ccccc23)NC(=O)C2CCCCC2)c1 (centres undefined)
12 | 140 to 142 | N#Cc1c[nH]c(Cl)c1-c1ccccc1
13 | 86 to 90 | COc1ccc(C(C#Cc2ccccc2)Cc2noc(C)n2)cc1OC1CCCC1 (racemic)
14 | 170 | O=C(CCc1ccc(O)c(C=Nc2ccccc2O)c1)ON1C(=O)CCC1=O
15 | 118 | CN(C(=O)OC(C)(C)C)C(S)=NC(=O)OC(C)(C)C
16 | 42 to 45 | Cc1ccc(O)c(C(C)(C)CC(C)(C)C)c1
17 | 302 to 304 | CC(=O)OCC1OC(n2c3ncccc3c3c4c(c5c6ccccc6[nH]c5c32)C(=O)N(C)C4=O)C(OC(C)=O)C(OC(C)=O)C1OC(C)=O (centres undefined)
18 | 67 to 69 | NN(Cc1ccccc1[N+](=O)[O-])c1ccccc1
19 | 168 to 196 | CCOC(=O)c1c(Nc2c(C)cc(Br)cc2C)n[nH]c1C
20 | 290 to 292 | O=c1cc(-c2ccncn2)nc2n1Cc1ccccc1N2
21 | 186 to 187 | COc1ccc(N2CCN(c3c(C)c(C)c4c(c3C)C(c3ccc(C)cn3)C(C)(C)O4)CC2)cc1 (centres undefined)
22 | 148 to 151 | CN1CCN(c2nc(Nc3cccc(NS(C)(=O)=O)c3)nc3[nH]cnc23)CC1
23 | 100 to 103 | O=C(CCCCCCC(c1ccccc1)(c1ccccc1)c1ccccc1)NO
24 | 290 to 291 | Cc1cc(C(=O)O)c2c(c1)C(C(Cl)(Cl)Cl)OC(C(Cl)(Cl)Cl)O2 (centres undefined)

Row | melting point [°C] | Compound
25 | 127 to 129 | CC[C@@H](c1ccccc1)N(Cc1ccc(C(=O)O)c(F)c1F)S(=O)(=O)c1ccc(Cl)cc1
26 | 189 to 190 | CSc1nc(NC2CCCCC2)c2ccnc-2[nH]1
27 | 210 to 211 | Cc1cc(C)cc(-c2cc(O)c(Sc3ccccc3)c(=O)o2)c1
28 | 139 to 163 | O=S1(=O)N=C(NCCCOc2cccc(CN3CCCCC3)c2)c2ccc(F)cc21
29 | 174 to 176 | COc1ccc(-c2nc3cnccc3[nH]2)c(OCCCCl)c1
30 | 140 to 141 | COP(=O)(CC(=C(c1ccc(F)cc1)c1ccc(F)cc1)c1nnnn1C)OC
31 | 216 | CCOC(=O)c1cn(C)c2nc3c(F)c(N4CCNC(c5ccccc5)C4)c(F)cc3cc2c1=O (racemic)
32 | 104 to 107 | CCOC=NN=C(c1ccc(Cl)cc1)c1ccc(OS(C)(=O)=O)cc1
33 | 138 to 140 | Nc1ncc(Br)nc1-c1ccccc1Cl
34 | 100 to 102 | CC1(C(=O)C2(C)COCOC2)COCOC1
35 | 197 to 198 | O=c1c2cccnc2n(-c2cccc(CO)c2)c(=O)n1Cc1cccnc1
36 | 110 to 111 | O=C(NCCCSc1ccncc1)c1ccccc1CO
37 | 93 to 95 | CCOc1cc(C)cc(C)c1C
38 | 181 to 182 | CCCCc1nc2c(N)nc3cc(CCc4ccccc4)ccc3c2n1CC(C)C
39 | 110 to 111 | O=c1ccc(-c2cccc(Br)c2)nn1CN1CCOCC1
40 | 201 to 203 | O=C(Cc1cccc(C(F)(F)F)c1)c1c(O)c2cccnc2n(-c2ccccc2)c1=O
41 | 194 to 195 | N#Cc1ccc(-c2ccc(-c3ccc(C#N)o3)o2)cc1
42 | 116 to 118 | O=C(NN1CCCN(C(=O)OCc2ccccc2)CC1)c1ccc(F)cc1
43 | 72 to 74 | CCCCCCCCCCCCCCCCSCC(O)CO (centres undefined)
44 | 144 to 146 | COc1ccc2c(c1)CCN(Cc1c[nH]c3ncccc13)C2
45 | 174 to 176 | CCCCCc1cc2c(nc(O)n2CCCNS(C)(=O)=O)c(N)n1
46 | 131 | CCSc1nc(=O)n(C(=O)NC)s1
47 | 213 to 214 | COc1cc(NC(=O)c2cc(C(C)C)c(C(C)C)s2)ccc1C(=O)O
48 | 185 to 186 | Cn1c(Nc2c(Cl)ccc(CNC(=O)C(C)(C)C)c2Cl)nc2cc(C(=O)N[C@H]3CC[C@H](C(F)(F)F)CC3)c(N3CCC(C(F)(F)F)CC3)nc21

Row | melting point [°C] | Compound
49 | 85 to 86 | O=C1CC(Cc2ccc(Cl)cc2Cl)CN1 (centres undefined)
50 | 38 to 40 | CCCCCCCCCCCCOc1cc(C#N)c(C#N)cc1OCCOCCOCCOC
51 | 207 to 208 | CC(=O)Nc1cnc(-c2ccccc2)c(-c2ccc(=O)n(C(C)C)n2)c1
52 | 235 | COc1cccc(OC)c1-c1ccc(C[C@H](NC(=O)c2c(Cl)ccc(Br)c2Cl)C(=O)O)cc1
53 | 158 to 159 | CCOC(=O)CCCn1c(Nc2cnc(N(C)C)cc2C)nc2c(Cl)ccc(C(CC)CC)c21
54 | 192 to 193 | COC(=O)c1ncn2c1[C@@H]1CCCN1C(=O)c1sccc1-2
55 | 109 | CC(C)OC(=O)c1cn(-c2cccc(Cl)c2)cn1
56 | 211 to 212 | O=C1c2ccccc2C(=O)N1CC(=O)N1c2ccccc2N(Cc2ccncc2)C(=O)[C@H]2CCC[C@H]21 (relative stereo)
57 | 198 to 200 | COc1cc(OC)c(F)c(N2Cc3cnc(S(C)=O)nc3N(C3CC3)C2=O)c1F (centres undefined)
58 | 169 to 171 | CC(=O)N(CCCOc1ccc(C(=O)O)cc1)c1ccc(Cl)cc1
59 | 271 | COc1ccc(N2C(=O)C(O)=C(C(=O)c3ccc(C(C)C)cc3)C2c2ccc(OC(F)(F)F)cc2)nn1 (centres undefined)
60 | 209 to 210 | CCOCc1nc2c(N)nc3cc(OCc4ccc(C)cc4)ccc3c2n1CC(C)C
61 | 160 to 161 | CC(C)n1nc(-c2nc(C#N)c(C#N)nc2-c2ccccc2Br)ccc1=O
62 | 168 to 170 | N#CC(C(=O)Nc1ccc(S(=O)(=O)C(F)(F)F)cc1)=C(O)C1CC1
63 | 171 to 172 | NS(=O)(=O)c1ccc(-n2nc(CCCNC(=O)Nc3ccccc3)cc2-c2ccccc2)cc1
64 | 143 to 144 | CCc1ccc2nc(C)[nH]c2c1N1CC(CI)OC1=O (centres undefined)
65 | 75 to 77 | CCSC1=C(c2ccc(O)cc2)C(=O)c2cc(O)cc(O)c21
66 | 156 to 157 | CC(C)(C)OC(=O)N1CC[C@H](O)[C@H]1C(=O)O
67 | 201 to 205 | O=C1CC(c2cccc(-n3ccnc3)c2)=Nc2ccc(-c3ccccc3)cc2N1
68 | 204 to 206 | Cc1cc(CN2CCC(N(C)S(=O)(=O)c3ccc(Nc4nccc(Nc5ccc(F)c(F)c5)n4)cc3)CC2)no1
69 | 174 | Cc1ccc(S(=O)(=O)Oc2ccc(S(=O)(=O)C3=Cc4ccccc4C3)cc2)cc1
70 | 178 to 179 | COC(=O)c1cccc(Cl)c1NC(=O)CC1c2ccccc2Oc2ccccc21
71 | 259 to 261 | CCCOc1cc2[nH]c(=O)[nH]c(=O)c2cc1OC
72 | 140 | N#Cc1ccccc1-c1ccc(CC(NC(=O)Nc2ccccc2S(=O)(=O)N2CCCCC2)C(=O)O)cc1 (centres undefined)

Row | melting point [°C] | Compound
73 | 265 to 267 | CN1C(=O)Cc2cc(C3=NNC(=O)C4CC34)ccc21 (centres undefined)
74 | 194 to 195 | COn1c(-c2ccccc2)nc2cnc3ccccc3c21
75 | 172 to 175 | CC(=O)OC1CSC(Oc2ccc3cc[nH]c3c2)C(OC(C)=O)C1OC(C)=O (centres undefined)
76 | 139 to 142 | COC(=O)C=C(Br)SC#N
77 | 91 to 92.5 | C#CCn1cncc1CO
78 | 248 to 249 | COC(=O)[C@H](CC(=O)O)NC(=O)c1cccc(NC(=O)c2ccc(C(=N)N)cc2)c1
79 | 128 to 130 | NC1CCOC1c1ncnc2nc[nH]c12 (centres undefined)
80 | 206 | CN(C)C(=O)C1CN(C)c2nc3cc(F)c(F)cc3cc2C1=O (centres undefined)
81 | 78 to 80 | CC(C)(C)OC(=O)NC[C@H]1CC[C@H](CCO)CC1
82 | 301 to 304 | COc1ccc(Nc2nn3c(-c4ccc(OC)cc4)nnc3c3ccccc23)cc1
83 | 203 | CCN(CC)C(=O)C1CCN(Cc2cnc3cc(NC(=O)c4ccc(-c5ccc(F)cc5)cc4)c(C)cc3c2)CC1
84 | 111 to 112 | O=C(c1ccc2ccccc2c1)N1CC[C@H](NCc2ccnc3ccccc23)C[C@H]1Cc1ccccc1 (relative stereo)
85 | 72 to 73 | O=C(O)CCc1nc(-c2ccccc2)cs1
86 | 192 | COc1c2c(cc3ccccc13)CCC(C(=O)O)C2 (centres undefined)
87 | 183 to 186 | CCCOCc1cc(OC)c(-c2ccc(C[C@H](NC(=O)c3c(Cl)cccc3Cl)C(=O)O)cc2)c(OC)c1
88 | 84 to 88 | CC1(C)C(=O)NC(=O)c2ccccc21
89 | 217 to 219 | Cc1cc(COc2cccc3c2CN(C2CCC(=O)NC2=O)C3=O)ccc1Cl (centres undefined)
90 | 249 to 250 | CC(C)(C)c1ccc(C(=O)Nc2cn3cc(Br)ccc3n2)cc1
91 | 201 to 203 | COc1ccc(S(=O)(=O)N2C(=O)C(OCC(=O)N3CCN(c4ccncc4)CC3)(c3ccccc3OC(C)C)c3cc(Cl)ccc32)c(OC)c1 (centres undefined)
92 | 84 to 86 | Cc1cc(CC#N)cc(Cc2nc3c(F)c(F)ccc3s2)c1
93 | 165 to 185 | CCc1ccc2nc(C)[nH]c(=O)c2c1
94 | 165 to 168 | CCC(CO)Nc1nc(C)nc2c(C)nn(C)c12 (centres undefined)
95 | 108 to 109 | COc1ccc2c(c1)C(C)CC1C2CCC2(C)C(=O)CCC12 (centres undefined)

Row | Compound | melting point [°C]
96 | O=C(CCC1CCCCC1)NC1N=C(c2ccccc2)c2ccccc2NC1=S (centres undefined) | 113 to 119
97 | N#CC1CN1C(=O)NC(=O)C1CCCCC1 (centres undefined) | 142 to 144
98 | CON=CCN1C(=O)C(NC(=O)c2cc3ccccc3[nH]2)N=C(c2ccccc2)c2ccccc21 (racemic) | 169 to 174
99 | CN1CC(=O)N(c2ccc(C#N)c(C(F)(F)F)c2)C1=S | 220 to 221
